Data from patent US20230131339A1, “EPI-X4 BASED PEPTIDES AND DERIVATIVES THEREOF” (Universitaet Ulm, priority 2020, published 2023).

What was measured:
[1] = system: CXCR4-tropic X4-HIV-1 (NL4-3); assay type: cell-based; conditions: compared to EPI-X4
Experimental: The activity of the peptides was estimated by different assays.
The X4-HIV inhibition assay is designed to measure the activity of the inventive peptides by their efficiency of blocking the infection of tissue culture cells by CXCR4-tropic HIV-1 variants.
HIV-1 inhibition assay. […] For infection of TZM-bl cells in presence of inhibitors, cells were seeded at a density of 1×10^5 cells/ml in 70 μl DMEM containing 2.5% FCS. Compounds were diluted in PBS and 10 μl were added. After 15 minutes of incubation cells were inoculated with 20 μl of diluted virus. Infection rates were determined three days later using Gal-Screen system (Applied Biosystems).

CXCR4 = target: T1, CXCR4 (Homo sapiens, UniProt P61073); assay: Antibody competition assay (12G5-assay) on SupT1 cells; assay type: binding
T1 construct: endogenous in cells; host or cells: SupT1 cells
Experimental: Second, the activity was tested by an antibody competition assay (FIG. 2). Values determined by the competition assay represent the potency of a compound to compete with an antibody that specifically binds to the binding pocket (ECL2) of CXCR4. […] To the right of the diagrams, an assignment of the curves to the tested peptides is explained. […] Three independent experiments were carried out for each peptide in each assay. The error bars refer to the standard deviation.
Antibody competition assay. Competition of compounds with antibody binding was performed on SupT1 cells. For that cells were washed in PBS containing 1% FCS and 50,000 cells were then seeded per well in a 96 V-well plate. Buffer was removed and plates were precooled at 4° C. Compounds were diluted in PBS and antibody (clone 12G5, APC labelled) was diluted in PBS containing 1% FCS. The antibody was used at a concentration closed to its determined Kd. 15 μl compounds were then added to the cells and 15 μl antibody immediately afterwards. Plates were incubated at 4° C. in the dark for 2 hours. Afterwards cells were washed twice with PBS containing 1% FCS and fixed with 2% PFA. Antibody binding was analyzed by flow cytometry (FACS CytoFLEX; Beckman Coulter®).

[2] = system: CXCL12-induced AKT signaling; assay: ERK/AKT signaling assay in SupT1 cells: AKT phosphorylation; assay type: cell-based
How it was run: (§1)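 SupT1 cells in 1% FCS medium preincubated 15 min at 37 °C with compound, then stimulated 2 min with CXCL12 (100 ng/ml final). PFA-fixed, methanol-permeabilized cells stained for phospho-ERK1/2 (Tyr204/Tyr187) or phospho-AKT (Ser473) and read by flow cytometry; two or three independent experiments in triplicate.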

[3] = system: CXCL12-induced ERK signaling; assay: ERK/AKT signaling assay in SupT1 cells: ERK phosphorylation; assay type: cell-based; conditions: 1 μM
How it was run: as §1

[4] = system: CXCL12 induced Ca2+-signalling; assay: Ca++ signaling in BCR-ABL-transformed murine bone marrow cells; assay type: cell-based; conditions: 1 μM
[5] = system: CXCL12 induced migration of T-cells; assay: Migration assay (transwell, Jurkat cells); assay type: cell-based
[6] = target: T2, CXCR4 12G5 epitope of AML cells (Homo sapiens, UniProt P61073); assay: Blocking of the CXCR4 12G5 epitope of AML cells; assay type: binding
T2 construct: endogenous in cells
Text: (§2) Experimental data support the efficiency of the claimed peptide derivatives against the diseases mentioned above. At the example of JM #21 (SEQ ID NO.: 23) it could be shown that the peptides counteract growth and migration in vitro and in vivo of Acute Myeloid Leukemia (AML) cells as well as primary patient material and Waldenström's Macroglobulinemia (WM) cells harboring different WHIM-like CXCR4 mutations. This was accompanied by intrinsic changes suppressing oncogenic MAP kinase signaling of AML and WM cells.

[7] = system: CXCL12-induced ERK phosphorylation of AML cells; assay: CXCL12-induced ERK phosphorylation of AML cells; assay type: cell-based
Text: as §2

[8] = system: primary CXCR4 AML patient samples; assay: Engraftment of primary AML patient samples in NSG mice; assay type: in vivo
Text: as §2

[9] = system: CXCR4 12G5 epitope of WM cells; assay: Blocking of the CXCR4 12G5 epitope of WM cells; assay type: binding; conditions: with or without CXCR4 mutations
Text: as §2

[10] = system: CXCL12-induced ERK phosphorylation of CXCR4 mutant WM cells; assay: CXCL12-induced ERK phosphorylation of CXCR4 mutant WM cells; assay type: cell-based
Text: as §2

[11] = Stability assay in human S9 liver fractions; conditions: 2 hours, with cofactors
Experimental: Further, the stability of peptides in human S9 liver fractions (in the presence of cofactors) was tested (FIG. 12). […] To simulate and predict hepatic metabolic clearance, peptides were added to human S9 liver fractions. […] For each peptide, three independent experiments were performed.
Stability assay in human S9 liver fractions. Pooled human liver S9 fractions were obtained from Thermo Fisher Scientific at a total protein concentration of 20 mg/ml. Fractions were stored in 25 μl aliquots at −80° C. For stability experiments, they were diluted to a final concentration of 0.5 mg/ml in Tris buffer. Cofactors (or buffer) were added immediately before start of the experiment (NADPH: 1 mM, UDPGA: 0.5 mM, GSH: 2.5 mM, PAPS: 0.05 mg/ml, Sigma Aldrich). The reaction was started by adding peptides or compounds at a concentration of 20 μM to the mixture and gentle agitation at 37° C. Determination of enzymatic stability was performed as described for plasma.

T1 sequence (P61073 whole entry): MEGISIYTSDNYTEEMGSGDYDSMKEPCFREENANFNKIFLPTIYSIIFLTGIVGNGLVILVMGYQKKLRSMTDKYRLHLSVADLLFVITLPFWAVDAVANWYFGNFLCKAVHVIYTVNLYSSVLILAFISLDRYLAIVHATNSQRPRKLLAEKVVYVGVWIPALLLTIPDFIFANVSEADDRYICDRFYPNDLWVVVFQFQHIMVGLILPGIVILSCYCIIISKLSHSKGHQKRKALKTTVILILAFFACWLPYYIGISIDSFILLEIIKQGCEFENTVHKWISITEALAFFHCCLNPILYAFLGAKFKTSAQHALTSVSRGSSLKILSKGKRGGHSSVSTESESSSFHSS
T2 sequence (P61073 whole entry): as above

In the case of `CC[C@H](C)[C@H](N)C(=O)N[C@@H](CC(C)C)C(=O)N[C@@H](CCCNC(=N)N)C(=O)N[C@@H](Cc1c[nH]c2ccccc12)C(=O)N[C@@H](CO)C(=O)N[C@@H](CCCNC(=N)N)C(=O)N[C@@H](CCCCN)C(=O)N[C@@H](CC(C)C)C(=O)N1CCC[C@H]1C(=O)N[C@@H](CS)C(=O)N[C@H](C(=O)N[C@@H](CO)C(=O)O)C(C)C` [JM #21], the “fold more effective inhibition of X4-HIV-1 than EPI-X4” value [1] was about 100 fold, the “antibody competition / binding to CXCR4 (in words)” value (CXCR4) was “more effective antibody competition” and the “reduction of CXCL12-induced AKT signaling” value ([2]; 1 μM) was “about 50%”. For the same molecule, the “reduction of CXCL12-induced AKT signaling” value ([2]; 10 μM) was “about 85%”, the “blocking of CXCL12 induced signaling (in words)” value ([2]; AKT and ERK) was “blocked signaling more effectively than WSC02” and the “fold effectiveness in blocking AKT signaling relative to WSC02” value ([2]; compared to WSC02) was “about 10 fold”. For the same molecule, the “reduction of CXCL12-induced ERK signaling” value [3] was 60%, the “reduction of CXCL12 induced calcium-signaling” value [4] was “much stronger than the reduction seen for WSC02” and the “inhibition of CXCL12 induced migration of T-cells (in words)” value [5] was “more effective than WSC02”. The “blocking of CXCR4 12G5 epitope of AML cells” value [6] was “efficiently blocked the CXCR4 12G5 epitope of AML cells in a dose dependent manner”, the “CXCL12-induced ERK phosphorylation of AML cells” value [7] was “reduced CXCL12-induced ERK phosphorylation of AML cells” and the “engraftment potential of primary CXCR4 AML patient samples” value [8] was “reduced engraftment potential of primary CXCR4 AML patient samples in NSG mice”. For the same molecule, the “blocking of CXCR4 12G5 epitope of WM cells” value [9] was “blocked the CXCR4 12G5 epitope of WM cells in presence or absence of different CXCR4 mutations in a dose dependent manner”, the “CXCL12-induced ERK phosphorylation of CXCR4 mutant WM cells” value [10] was “reduced CXCL12-induced ERK phosphorylation of CXCR4 mutant WM cells in a dose-dependent manner” and the “remaining activity in human S9 liver fractions after 2 hours” value [11] was “readily inactivated by liver enzymes”.
